Results from US7989618B2, “Linezolid crystalline hydrate form and linezolid salts” (DiPharma Francis s.r.l., priority 2007, dated 2011).
Blank lines part the entries; values can stand above or below the compound they belong to.

Tests used:
[1] = electrostatic character of the crystals; assay type: physicochemical; conditions: contrary to the known crystalline Form II
[2] = hygroscopicity of the isolated solid; assay type: physicochemical; conditions: amorphous solid
[3] = as stated in US 2006/0142283 / WO 2005/035530; cited from earlier work

- electrostatic character (in words) [1]: not electrostatic
Compound: CC(=O)NC[C@H]1CN(c2ccc(N3CCOCC3)c(F)c2)C(=O)O1 [linezolid hemihydrate, Linezolid Hemihydrate]

Compound: Linezolid Sulfate
- hygroscopicity (in words) [2]: hygroscopic

Compound: CC(=O)NC[C@H]1CN(c2ccc(N3CCOCC3)c(F)c2)C(=O)O1 [Form III, Linezolid Form III]
- electrostatic character and compactness compared with Form II (in words) [3]: more compact and less electrostatic than the Form II
